The target in experiment [1] is T1, B. subtilis MtnX (Bacillus subtilis, UniProt O31667).
T1 sequence (O31667 1-235): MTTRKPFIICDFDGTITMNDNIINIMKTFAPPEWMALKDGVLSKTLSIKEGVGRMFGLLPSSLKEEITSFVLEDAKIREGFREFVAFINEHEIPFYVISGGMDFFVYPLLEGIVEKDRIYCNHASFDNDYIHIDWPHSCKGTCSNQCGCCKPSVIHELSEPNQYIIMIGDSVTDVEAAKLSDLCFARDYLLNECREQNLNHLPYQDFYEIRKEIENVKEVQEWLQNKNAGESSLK
Description: UV-visible spectral shift to […] nm and 1H-NMR. Format: biochemical. The settings on record: phosphatase reaction to DHK-MTPene; pH 8.0, 35°C; substrate made in situ by T. thermophila MtnB domain.

Experiment [2] addresses T2, MtnB domain (Tetrahymena thermophila, UniProt I7MAL0).
T2 construct: gene TTHERM_00467500
Nature of the experiment: UV-visible and 1H-NMR product analysis. It is filed as biochemical. The following applies: dehydratase/enolase to HK-MTPenyl-1-P; 5 mM MgCl2, pH 8.0, 35°C; substrate made in situ from MTR-1-P by MtnA; kcat only, no Km.

Experiment [3] has as its target T3, Full-length MtnBD (Tetrahymena thermophila, UniProt I7MAL0).
T3 construct: gene TTHERM_00467500
T3 sequence (I7MAL0 1-400): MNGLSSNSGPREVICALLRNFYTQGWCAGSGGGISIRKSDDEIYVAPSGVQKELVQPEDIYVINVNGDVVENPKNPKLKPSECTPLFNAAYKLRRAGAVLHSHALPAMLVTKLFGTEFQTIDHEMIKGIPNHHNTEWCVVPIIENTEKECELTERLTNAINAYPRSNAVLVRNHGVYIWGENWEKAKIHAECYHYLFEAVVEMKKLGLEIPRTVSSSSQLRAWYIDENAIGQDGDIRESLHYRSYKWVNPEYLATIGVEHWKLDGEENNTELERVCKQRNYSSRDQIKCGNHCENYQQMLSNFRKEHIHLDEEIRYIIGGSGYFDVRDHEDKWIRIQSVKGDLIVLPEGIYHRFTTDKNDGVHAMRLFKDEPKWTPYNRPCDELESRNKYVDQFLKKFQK
Nature of the experiment: UV-visible and 1H-NMR product analysis. It is filed as biochemical. The following applies: dehydratase/enolase to HK-MTPenyl-1-P; 5 mM MgCl2, pH 8.0, 35°C; substrate made in situ from MTR-1-P by MtnA; kcat only, no Km.

The target of experiment [4] is MtnB domain of Tetrahymena thermophila MtnBD (Met1-Ser216), histidine-tagged recombinant protein (Tetrahymena thermophila). Description: native gel or EMSA; native-PAGE, 5-20% gradient polyacrylamide gel, non-denaturing conditions, 1 ug purified protein, mass estimated against native high molecular weight markers; oligomer size from native mass over calculated monomer mass.

Experiment [5] deals with Tetrahymena thermophila MtnBD, full-length, histidine-tagged recombinant protein (Tetrahymena thermophila). The experiment is described as above.

In the case of `CSCCC(=O)C(O)=COP(=O)(O)O` [HK-MTPenyl-1-P], in experiment [1], the “UV-visible spectral shift to 310 nm and 1H-NMR” value is “DHK-MTPene was obtained from the reaction of B. subtilis MtnX with HK-MTPenyl-1-P”.
Turning to `CSC[C@@H](O)[C@@H](O)C(=O)COP(=O)(O)O` [MTRu-1-P], the “UV-visible and 1H-NMR product analysis” value in experiment [2] was “MtnB domain catalyzed the dehydration/enolization reactions to convert MTRu-1-P to HK-MTPenyl-1-P”; in experiment [3], “T. thermophila MtnBD catalyzed the conversion of MTRu-1-P to HK-MTPenyl-1-P”.
For the compound “MtnB domain of Tetrahymena thermophila MtnBD (Met1-Ser216), histidine-tagged recombinant protein (domain or fragment)”, the stoichiometry N in experiment [4] was 6.
For the compound “Tetrahymena thermophila MtnBD, full-length, histidine-tagged recombinant protein (enzyme)”, in experiment [5], the stoichiometry N was 6.

The values above are taken from PMC3698126, “MtnBD Is a Multifunctional Fusion Enzyme in the Methionine Salvage Pathway of Tetrahymena thermophila” (PLoS ONE, 2013).
